In patent EP0339176A1, “Suppository containing a non-steroidal anti-inflammatory medicament” (AMERICAN CYANAMID COMPANY, priority 1988, dated 1989):

Experiments:
[1] = Clinical bioavailability study of Fenbufen suppositories; format: in vivo; conditions: rectal
Protocol: Rectal administration of non-steroidal anti-inflammatory drugs can be clinically advantageous in some circumstances, in that it can prolong the effect of the drug. For example, when certain non-steroidal drugs are given rectally to a patient immediately prior to retiring for the night, sufficient blood levels of the drug are still available some 6-7 hours later to prevent morning stiffness. However, in the case of Fenbufen, the high level required for the nocturnal dose (450-600 mg) makes it difficult to deliver this drug successfully from the rectum. […] Accordingly, Fenbufen-containing suppository formulations for rectal administration have not been available, which is a disadvantage when Fenbufen would otherwise be the drug of choice for the patient.

[2] = Solubility of BPAA salts in water relative to the free acid; conditions: salt versus free acid

| Compound | bioavailability of the active ingredient from suppositories [1] | increase of the solubility of (1,1′-biphenyl)-4-acetic acid in water [2] |
| --- | --- | --- |
| O=C(O)CCC(=O)c1ccc(-c2ccccc2)cc1 [Fenbufen, 4-(biphenyl-4-yl)-4-oxo-butyric acid] | low bioavailability | – |
| O=C(O)Cc1ccc(-c2ccccc2)cc1 [sodium] | – | 8-9 fold |
